Assays:
[1] = tested on: human lung fibroblasts (IMR-90); assay: Cell viability assay of NS and SEN IMR-90 cells treated with CRYAB and HMOX1 inhibitors; format: cell-based; settings: 250 nM Doxo-induced senescence; viability after 72 h; 25HC at 10 or 50 μM
Procedure: The average value of DMSO was set at 1. (B and D) Effects of CRYAB and HMOX1 inhibitors on DMSO-treated NS or Doxo-treated SEN cells; (B) mDFs, (D) IMR-90s. Cells were treated with the inhibitors at the indicated concentrations. Cell viability was measured after 72 h. (C) IMR-90 qRT-PCR. For qPCR: mean +/- SE, n =4, ∗p< 0.05, ∗∗p< 0.01, ∗∗∗p<0.001, ∗∗∗∗p<0.0001 by Dunnett’s multiple comparisons test vs DMSO. For cell viability assays: mean +/- SE, n =3, ∗∗p< 0.01, ∗∗∗p<0.001, ∗∗∗∗p<0.0001 vs 0 mM by student’s t test.
All experiments were performed in incubators at 37 °C, 3% O2 and 5% CO2. Senescence was induced by treatment with either Doxo (250 nM for 24 h) ([Demaria et al., 2017]) or X-irradiation (10 Gy) ([Limbad et al., 2020]). For cell culture studies using 25HC, it was used at the indicated concentrations in the media.
IMR-90 cells were cultured in DMEM with 10% FBS. […]
Cell viability was assessed using a cell counting kit-8 from Dojindo Molecular Technologies, Inc (Cat CK04-20). […] The supernatant was transferred to a new 96-well plate and absorbance read at 450 nm as recommended in the product datasheet.

[2] = tested on: Cdkn1a and Cryab mRNA in gastrocnemius and soleus muscles; assay: qRT-PCR of senescence markers and Cryab in muscles of Doxo-treated mice given 25HC; format: in vivo, mouse; settings: Doxo-treated male mice, 25HC 50 mg/kg i.p. for 7 consecutive days
Procedure: Figure 8 25HC induces senolysis in vivo in Doxo-treated mice (A) Timeline of 25HC treatment in Doxo-treated mice. Mice were given 4 mg/kg Doxo or PBS for 5 daily injections[A1], then injected with 25HC or vehicle for 7 consecutive days. (B) Mass of gastrocnemius muscles. Muscle weight was normalized to body weight. (C) Cdkn2a and Cryab mRNA levels in gastrocnemius (Gastroc) and soleus (Sol) muscles. RNA was collected 28–30 d after the first treatment with Doxo. mRNA levels were quantified by qRT-PCR, and normalized to actin mRNA levels. The average value of PBS-vehicle was set at 1. (D) 15-d-PGJ2 analysis in urine. Urine was collected at 24 h after the first treatment with 25HC or HbCD. p values versus PBS-Veh or Doxo-Veh are obtained using Tukey's multiple comparisons test. ∗p < 0.05, ∗∗p < 0.01, p < 0.001, and ∗∗∗∗p < 0.0001.
Male C57BL/6J mice (3–4 months old) were purchased from the Jackson Laboratory. We performed five i.p. injections with 4 mg/kg of Doxo (Tocris Bioscience, Product# 2252) for each injection over 10 days (Figure 6A). Therefore, we injected a total of 20 mg/kg of Doxo/mouse over 10 days. We used EFT-PBS (EMD Millipore, Product# TMS-012-A) as a control. To test effects of 25HC (Tocris Bioscience, Product# 5741) on Doxo-treated mice, we prepared three experimental groups (n=15 for each group): 1) PBS+HβCD vehicle (22.5%), 2) Doxo (20 mg/kg)+vehicle (22.5%), 3) Doxo (20 mg/kg)+25HC (50 mg/kg) (Figure 6A); 25HC was dissolved in 22.5% 2-hydroxypropyl-beta-cyclodextrin (HβCD) (Tocris Bioscience, Product 0708). On the Day 5 after the last Doxo/PBS injections, the mice were treated with either 25HC (50 mg/kg) or vehicle by i.p. injections for 7 consecutive days (Figure 6A). 12 hr after the first 25HC or vehicle treatments, urine was collected (Figure 6A) from each group to test for the senolysis marker 15-d-PGJ2. […] Senescence markers p16^INK4a, p21^Cip1 and CRYAB expression was analyzed on gastrocnemius (Gastroc), soleus (So), tibialis anterior (TA), visceral fat (VF), kidney (Ki), liver (Li), lung (Lu), heart (He), and skin (Sk) samples by qRT-PCR. […]

**Q.** How did the “senolysis in IMR-90 cells” value [1] turn out when C[C@H](CCCC(C)(C)O)[C@H]1CC[C@H]2[C@@H]3CC=C4C[C@@H](O)CC[C@]4(C)[C@H]3CC[C@]12C [25HC, 25-hydroxycholesterol] was run?
**A.** induced significant senolysis

**Q.** And the “Cryab mRNA levels in muscle” value [2]?
**A.** reduced

**Q.** What about the “Cdkn1a mRNA in gastrocnemius and soleus” value ([2]; versus Doxo + vehicle) of the same compound?
**A.** significantly decreased

— article PMC8851282, “Senolysis induced by 25-hydroxycholesterol targets CRYAB in multiple cell types” (iScience, 2022)
